Experimental data taken from ChEMBL document CHEMBL5727515, “5-[3-[piperzin-1-yl]-3-oxo-propyl]-imidazolidine-2,4-dione derivatives as ADAMTS 4 and 5 inhibitors for treating E.G. osteoarthritis” (2020).
pIC50: −log10 of the molar value.

Assays:
Collagenase 3 = Collagenase 3 (Homo sapiens, UniProt P45452); assay: Human MMP13 is preactivated by incubated the enzyme in the same buffer complemented with 1 mM freshly prepared p-Aminophenylmercuric acetate (AMPA) for 1 h at 37° C.The reaction is initiated by adding to the assay plate 390 MMP FRET Substrate I (10 μL, 2.5 μM) in the same buffer.Finally, the fluorescence is read on the Envision (Perkin Elmer) after an incubation of 45 min at room temperature (Excitation 485 nm, Emission 530).
[1] = target: T1, A disintegrin and metalloproteinase with thrombospondin motifs 5 (Homo sapiens, UniProt Q9UNA0); assay: hADAMTS-5 assay: The basis for the assay is the cleavage of the substrate TBIS-1 (5 FAM-TEGEARGSVILLK (5TAMRA)K-NH2) (SEQ ID NO: 2) by human ADAMTS-5.For the dose response (10 point), 4 μL of a dilution series of compound (2 mM highest concentration, 1/5 dilution in DMSO further diluted 1 in 10 in water, corresponding to a final highest concentration of 20 μM), is transferred to 384 well Fluotrac …
T1 sequence (Q9UNA0 whole entry): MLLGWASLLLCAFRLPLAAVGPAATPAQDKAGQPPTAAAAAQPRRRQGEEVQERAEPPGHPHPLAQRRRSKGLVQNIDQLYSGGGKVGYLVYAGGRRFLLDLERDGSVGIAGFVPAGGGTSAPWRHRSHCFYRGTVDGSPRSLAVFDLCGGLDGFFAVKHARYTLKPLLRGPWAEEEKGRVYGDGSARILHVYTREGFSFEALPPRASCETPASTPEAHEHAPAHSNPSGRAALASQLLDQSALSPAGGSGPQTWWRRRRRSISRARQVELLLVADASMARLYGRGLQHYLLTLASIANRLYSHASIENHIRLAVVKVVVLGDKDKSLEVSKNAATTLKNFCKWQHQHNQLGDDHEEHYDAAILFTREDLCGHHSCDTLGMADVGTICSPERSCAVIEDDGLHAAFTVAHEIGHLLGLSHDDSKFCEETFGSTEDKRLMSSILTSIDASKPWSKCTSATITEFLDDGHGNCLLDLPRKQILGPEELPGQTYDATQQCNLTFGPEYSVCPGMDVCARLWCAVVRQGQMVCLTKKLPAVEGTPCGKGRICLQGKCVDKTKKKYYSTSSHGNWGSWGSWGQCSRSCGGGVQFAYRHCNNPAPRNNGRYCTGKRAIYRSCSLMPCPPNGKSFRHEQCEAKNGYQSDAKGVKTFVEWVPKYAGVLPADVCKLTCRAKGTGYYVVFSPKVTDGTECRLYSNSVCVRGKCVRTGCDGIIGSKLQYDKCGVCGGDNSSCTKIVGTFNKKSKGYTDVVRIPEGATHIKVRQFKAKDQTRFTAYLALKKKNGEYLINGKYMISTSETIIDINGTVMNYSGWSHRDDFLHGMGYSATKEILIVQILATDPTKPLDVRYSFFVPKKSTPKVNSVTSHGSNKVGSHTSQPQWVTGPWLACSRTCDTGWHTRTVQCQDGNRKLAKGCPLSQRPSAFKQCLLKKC

[2] = target: Disintegrin and metalloproteinase domain-containing protein 17 (Homo sapiens, UniProt P78536); assay: hTACE assay: The basis for the assay is the cleavage of the substrate 5FAM-LAQAVRSSSRK-5TAMRA (SEQ ID No 3) (Anaspec, custom 34891) by human TACE (R&D SYSTEMS INC., Cat#930-ADB).For the dose response (10 point), 4 μL of a dilution series of compound (2 mM highest concentration, 1/5 dilution in DMSO further diluted 1 in 10 in water, corresponding to a final highest concentration of 20 μM), is …
[3] = target: Matrix metalloproteinase-14 (Homo sapiens, UniProt P50281); assay: hMMP14 assay: The basis for the assay is the cleavage of the substrate 390 MMP FRET Substrate I (Anaspec Cat# AS-27076) by human MMP14 (Biomol, Cat#SE-259).For the dose response (10 point), 4 μL of a dilution series of compound 2 mM highest concentration, 1/5 dilution in DMSO further diluted 1 in 10 in water, corresponding to a final highest concentration of 20 μM), is transferred to 384 well …

Disintegrin and metalloproteinase domain-containing protein 17, sequence (P78536 whole entry, the tested form may be a part): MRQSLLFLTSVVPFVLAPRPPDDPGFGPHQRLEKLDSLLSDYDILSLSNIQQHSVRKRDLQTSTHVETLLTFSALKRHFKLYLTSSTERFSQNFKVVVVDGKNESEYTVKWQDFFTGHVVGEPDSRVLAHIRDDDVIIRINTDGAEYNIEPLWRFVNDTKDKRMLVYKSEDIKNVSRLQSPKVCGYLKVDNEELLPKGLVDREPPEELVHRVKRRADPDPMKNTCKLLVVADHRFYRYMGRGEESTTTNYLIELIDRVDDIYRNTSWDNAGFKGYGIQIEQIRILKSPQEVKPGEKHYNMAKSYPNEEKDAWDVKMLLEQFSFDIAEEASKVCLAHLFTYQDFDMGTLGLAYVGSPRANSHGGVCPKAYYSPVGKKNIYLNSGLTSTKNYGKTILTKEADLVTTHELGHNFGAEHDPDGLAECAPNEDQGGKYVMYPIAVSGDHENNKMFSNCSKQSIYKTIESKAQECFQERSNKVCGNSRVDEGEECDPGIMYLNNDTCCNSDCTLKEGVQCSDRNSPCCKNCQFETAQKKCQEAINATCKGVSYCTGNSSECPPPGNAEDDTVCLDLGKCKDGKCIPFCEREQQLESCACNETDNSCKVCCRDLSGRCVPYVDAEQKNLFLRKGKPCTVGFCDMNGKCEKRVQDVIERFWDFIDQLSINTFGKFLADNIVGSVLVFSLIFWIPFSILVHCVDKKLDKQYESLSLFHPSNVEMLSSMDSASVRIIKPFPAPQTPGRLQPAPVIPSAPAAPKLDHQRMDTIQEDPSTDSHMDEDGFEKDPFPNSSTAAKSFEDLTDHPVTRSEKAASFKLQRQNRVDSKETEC

COc1cc(C2CCN(C(=O)CCC3(C)NC(=O)NC3=O)CC2)c(C)cc1Cl (stereo not drawn)
pIC50 (Collagenase 3): < 7.00
pIC50 [1]: < 7.00
pIC50 [2]: < 7.00

COc1cc(C2CCN(C(=O)CC[C@H]3NC(=O)NC3=O)CC2)cc(OC)c1F
pIC50 (Collagenase 3): < 7.00
pIC50 [3]: < 7.00
pIC50 [1]: < 7.00

COc1cc(C2CCN(C(=O)CC[C@@]3(C)NC(=O)NC3=O)CC2)cc(Cl)c1Cl
pIC50 (Collagenase 3): < 7.00

COc1c(Cl)cc(Cl)cc1C1CCN(C(=O)CC[C@@]2(C)NC(=O)NC2=O)CC1
pIC50 (Collagenase 3): < 7.00
pIC50 [1]: < 7.00

COc1cc(C2CCN(C(=O)CC[C@H]3NC(=O)NC3=O)CC2)cc(Cl)c1Cl
pIC50 (Collagenase 3): < 7.00

COc1c(Cl)cc(Cl)cc1C1CCN(C(=O)CC[C@H]2NC(=O)NC2=O)CC1
pIC50 (Collagenase 3): < 7.00
pIC50 [1]: < 7.00
pIC50 [2]: < 7.00
